Laboratory results from paper PMC7248098, “Biochemical characterization and inhibition of the alternative oxidase enzyme from the fungal phytopathogen Moniliophthora perniciosa” (Communications Biology, 2020).
Several values for one entry are separate records, joined by “and”; a condition that tells them apart may be missing. Equal values may be shown once. Read-outs that look alike come from different tables or passages of the source.

What was measured:
membrane-bound rMpAOX = membrane-bound rMpAOX (Moniliophthora perniciosa, UniProt A8QJP8); assay: Dose-response assay of inhibitors with membrane-bound, GMP-activated rMpAOX (NADH oxidation); assay type: biochemical
membrane-bound rMpAOX, sequence (A8QJP8 entry or part of it): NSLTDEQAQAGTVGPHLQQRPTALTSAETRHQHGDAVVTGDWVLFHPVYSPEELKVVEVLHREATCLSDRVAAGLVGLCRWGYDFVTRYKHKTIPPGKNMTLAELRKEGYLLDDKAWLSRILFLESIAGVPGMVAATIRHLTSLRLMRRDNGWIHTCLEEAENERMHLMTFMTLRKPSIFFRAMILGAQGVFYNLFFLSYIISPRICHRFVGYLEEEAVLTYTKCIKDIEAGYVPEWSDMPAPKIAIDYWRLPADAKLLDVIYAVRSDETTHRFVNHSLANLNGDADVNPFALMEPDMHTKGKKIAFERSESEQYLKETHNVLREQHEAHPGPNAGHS
Method: E. coli membrane preparation was performed as described with minor modifications. […] The cells were disrupted using two passes at […] through a pre-cooled Constant cell disruption system (Constant Systems Ltd). The lysate was centrifuged for 15 min at 16,000 rcf, and the pelleted unbroken cells and large cell debris were discarded. The supernatant was centrifuged for 90 min at 200,000 rcf to collect the fragmented membranes.
(§1) Respiration rates were recorded before and after the addition of putative AOX activators, such as 5′-ADP, 5′-AMP, 5′-GDP, 5′-GMP, glyoxylate, oxaloacetate, pyruvate or succinate (1 mM each unless stated otherwise). […] Data were acquired with the Multiskan FC Microplate Photometer (ThermoFisher). […] Absorbance readings were taken periodically and a blank reactions (substrate without enzyme) were included in every assay and were used to determine and subtract the autoxidation rate (background). Proteoliposomes were assayed as described for the E. coli membrane fraction except that no KCN was included and 0.5 µL of the prep (~50 ng rMpAOX) were added into the reaction. When tested, inhibitors were preincubated with the enzyme in reaction buffer for 2–5 min before starting the reaction by the addition of substrate. The path length (i.e., the height of the reaction medium inside the well) was calculated based on the reaction volume and the well cross-section area informed by the supplier. GraphPad Prism 7.0 (GraphPad Software Inc.) was used for function fitting.

membrane-bound TAO [1] = tested on: membrane-bound TAO; design: method as in PMID 23180806; settings: cited from earlier work
membrane-bound TAO [2] = assay: Inhibition of membrane-bound TAO (literature); assay type: biochemical, Trypanosoma brucei; settings: from literature IC50 values
purified rMpAOX = purified rMpAOX (Moniliophthora perniciosa, UniProt A8QJP8); assay: Purified (detergent-solubilised) rMpAOX, Q1H2 oxidation; assay type: biochemical
purified rMpAOX, sequence (A8QJP8 entry or part of it): as above
Method: The E. coli membrane fraction was resuspended with 50 mM Tris-HCl pH 7.5, 20% glycerol, 200 mM MgSO4 and 1% Fos-Choline-12 (FC-12) instead of MOPS buffer. The sample was left under gentle rocking for 1 h at 4 °C, after which it was centrifuged at 200,000 rcf for 30 min. […] T. Elthon, Nebraska, USA. Protein content was estimated through the Bradford method[63] and bovine serum albumin as standard.
as §1

[3] = tested on: TAO incorporated into PLs; design: method as in PMID 29133414; settings: cited from earlier work
[4] = target: rMpAOX incorporated into proteoliposomes (Moniliophthora perniciosa, UniProt A8QJP8); assay: rMpAOX incorporated into proteoliposomes with Q10 and NDH-2 (NADH oxidation); assay type: biochemical
rMpAOX incorporated into proteoliposomes, sequence (A8QJP8 entry or part of it): as above
Method: Proteoliposomes (PL) were prepared as previously described[44],[45], except that NDH-2 was used instead of complex I and 0.5% DDM was used instead of OG. […] For kinetic studies, PLs were prepared with 50 µg rMpAOX and no NDH-2—in this case, pure NDH-2 was added directly into the enzymatic reaction mixture at a saturating concentration. Briefly, lipids and Q10 stocks in chloroform were mixed in a glass vial and the chloroform dried under a nitrogen stream. The lipids were hydrated and extruded through a 100 nm NanoSizer MINI Liposome Extruder (T&T Scientific) followed by the addition of protein. After treatment with the Bio-Beads SM-2 Resin (Bio-Rad), proteolipososmes were harvested by ultracentrifugation and resuspended in 150 µL of buffer. Enzymatic assays were performed on the same day.
as §1

solubilised TAO = tested on: solubilised TAO; design: method as in PMID 29107420; settings: cited from earlier work
[5] = log[I], M -5.60206 (Fig2b), 2.5 µM
[6] = log[I], M -6.60206 (Fig2b), 0.25 µM
[7] = log[I], M -8.60206 (Fig2b), 0.0025 µM
[8] = log[I], M -9.60206 (Fig2b), 0.00025 µM
[9] = log[I], M -10.6021 (Fig2b), 25 pM

CC(/C=C/[C@@]1(C)[C@H](C)CCC(=O)[C@@H]1C)=C\Cc1c(O)c(Cl)c(C)c(C=O)c1O [AC, ascochlorin]
IC50 (membrane-bound rMpAOX): 5250 nM | Fractional velocity, % (membrane-bound rMpAOX; [5]): 73.3239% and 61.6121% | Fractional velocity, % (membrane-bound rMpAOX; [6]): 96.489% and 80.5494% | Fractional velocity, % (membrane-bound rMpAOX; log[I], M -7.60206 (Fig2b), 0.025 µM): 98.3896% and 89.3939% | Fractional velocity, % (membrane-bound rMpAOX; [7]): 99.2565% and 89.0077% | Fractional velocity, % (membrane-bound rMpAOX; [8]): 97.0686% and 90.2842% | Fractional velocity, % (membrane-bound rMpAOX; [9]): 95.0559% and 89.2874% | activity at 2.5 µM (membrane-bound rMpAOX; read-out: Fractional velocity, %, log[I], M -5.60206 (Fig2b)): 60.8% | activity at 0.25 µM (membrane-bound rMpAOX; read-out: Fractional velocity, %, log[I], M -6.60206 (Fig2b)): 92.8% | activity at 0.025 µM (membrane-bound rMpAOX; read-out: Fractional velocity, %, log[I], M -7.60206 (Fig2b)): 98.2% | activity at 0.0025 µM (membrane-bound rMpAOX; read-out: Fractional velocity, %, log[I], M -8.60206 (Fig2b)): 97.9% | activity at 0.00025 µM (membrane-bound rMpAOX; read-out: Fractional velocity, %, log[I], M -9.60206 (Fig2b)): 95.5% | activity at 25 pM (membrane-bound rMpAOX; read-out: Fractional velocity, %, log[I], M -10.6021 (Fig2b)): 93.4% | IC50 (membrane-bound TAO [1]): 1.5 nM | Ratio of AC IC50 to CB IC50 (TAO) (membrane-bound TAO [2]): 7.5

CC(C)=CCC/C(C)=C/Cc1c(O)c(Cl)c(C)c(C=O)c1O [CB, colletochlorin B]
Fractional velocity, % (membrane-bound rMpAOX; log[I], M -4.60206 (Fig2b), 25 µM): 2.536% and 2.662% and 8.437% | Fractional velocity, % (membrane-bound rMpAOX; [5]): 2.977% and 3.203% and 8.094% | Fractional velocity, % (membrane-bound rMpAOX; [6]): 4.262% and 7.7642% and 10.3237% | Fractional velocity, % (membrane-bound rMpAOX; [7]): 76.0268% and 98.1726% and 76.3221% | Fractional velocity, % (membrane-bound rMpAOX; [8]): 96.6921% and 90.9449% | activity at 0.00025 µM (membrane-bound rMpAOX; log[I], M -9.60206 (Fig2b), read-out: Fractional velocity, %): 96.2% | Fractional velocity, % (membrane-bound rMpAOX; [9]): 95.8052% and 91.68% | activity at 25 pM (membrane-bound rMpAOX; log[I], M -10.6021 (Fig2b), read-out: Fractional velocity, %): 92% | IC50 (membrane-bound rMpAOX; membrane-bound, GMP-activated rMpAOX, read-out: IC50): 14.8 nM | Ki (purified rMpAOX; Morrison equation for tight-binders, read-out: KIapp): 13.9 nM | activity at 2.5 pM (purified rMpAOX; [I], M 2.5e-12, read-out: Dose-response assay with CB, (Fig3d)): 99.5% | activity at 10 pM (purified rMpAOX; [I], M 1e-11, read-out: Dose-response assay with CB, Fig3d): 98% | activity at 25 pM (purified rMpAOX; [I], M 2.5e-11, read-out: Dose-response assay with CB, (Fig3d)): 99% | activity at 0.0001 µM (purified rMpAOX; [I], M 1e-10, read-out: Dose-response assay with CB, Fig3d): 100% | activity at 0.00025 µM (purified rMpAOX; [I], M 2.5e-10, read-out: Dose-response assay with CB, (Fig3d)): 99.7% | activity at 0.001 µM (purified rMpAOX; [I], M 1e-9, read-out: Dose-response assay with CB, Fig3d): 96.8% | activity at 0.0025 µM (purified rMpAOX; [I], M 2.5e-9, read-out: Dose-response assay with CB, (Fig3d)): 94.6% | activity at 0.01 µM (purified rMpAOX; [I], M 1e-8, read-out: Dose-response assay with CB, Fig3d): 79.3% | activity at 0.025 µM (purified rMpAOX; [I], M 2.5e-8, read-out: Dose-response assay with CB, (Fig3d)): 69.2% | activity at 0.1 µM (purified rMpAOX; [I], M 1e-7, read-out: Dose-response assay with CB, Fig3d): 36.9% | activity at 0.25 µM (purified rMpAOX; [I], M 2.5e-7, read-out: Dose-response assay with CB, (Fig3d)): 22.7% | activity at 1 µM (purified rMpAOX; [I], M 1e-6, read-out: Dose-response assay with CB, Fig3d): 8.98% | activity at 2.5 µM (purified rMpAOX; [I], M 2.5e-6, read-out: Dose-response assay with CB, (Fig3d)): 10.4% | activity at 10 µM (purified rMpAOX; [I], M 1e-5, read-out: Dose-response assay with CB, Fig3d): 2.99% | activity at 25 µM (purified rMpAOX; [I], M 2.5e-5, read-out: Dose-response assay with CB, (Fig3d)): 0% | activity at 100 µM (purified rMpAOX; [I], M 0.0001, read-out: Dose-response assay with CB, Fig3d): 3.34% | CB-to-rMpAOX ratio at the IC50 concentration (purified rMpAOX; enzyme 49.1 nM): 1.2 | IC50 (purified rMpAOX; purified rMpAOX, enzyme 49.1 nM): 59.3 nM | CB-to-enzyme ratio at the IC50 concentration [3]: 1.4 | Fractional velocity, % ([4]; log[CB], M -4.60206 (Fig4b), 25 µM): 2.151% | activity at 25 µM ([4]; log[CB], M -4.60206 (Fig4b), read-out: Fractional velocity, %): 2.86% | Fractional velocity, % ([4]; log[CB], M -5.60206 (Fig4b), 2.5 µM): 4.07% | activity at 2.5 µM ([4]; log[CB], M -5.60206 (Fig4b), read-out: Fractional velocity, %): 3.2% | Fractional velocity, % ([4]; log[CB], M -6.60206 (Fig4b), 0.25 µM): 11.8798% | activity at 0.25 µM ([4]; log[CB], M -6.60206 (Fig4b), read-out: Fractional velocity, %): 11.1% | Fractional velocity, % ([4]; log[CB], M -7.60206 (Fig4b), 0.025 µM): 47.093% | activity at 0.025 µM ([4]; log[CB], M -7.60206 (Fig4b), read-out: Fractional velocity, %): 46.1% | Fractional velocity, % ([4]; log[CB], M -8.60206 (Fig4b), 0.0025 µM): 86.8217% | activity at 0.0025 µM ([4]; log[CB], M -8.60206 (Fig4b), read-out: Fractional velocity, %): 74.5% | Fractional velocity, % ([4]; log[CB], M -9.60206 (Fig4b), 0.00025 µM): 97.2868% | activity at 0.00025 µM ([4]; log[CB], M -9.60206 (Fig4b), read-out: Fractional velocity, %): 99.3% | Fractional velocity, % ([4]; log[CB], M -10.6021 (Fig4b), 25 pM): 98.4496% | activity at 25 pM ([4]; log[CB], M -10.6021 (Fig4b), read-out: Fractional velocity, %): 98.7% | activity at 2.5 pM ([4]; log[CB], M -11.6021 (Fig4b), read-out: Fractional velocity, %): 100% | IC50 ([4]; proteoliposomes with rMpAOX, Q10 and NDH-2): 19.5 nM | IC50 (membrane-bound TAO [1]): 0.2 nM | CB-to-enzyme ratio at the IC50 concentration (solubilised TAO): 1.3
